Measured values reported in patent publication US7608282B2, “Transdermal granisetron” (Strakan International Limited, priority 2003, dated 2009).
Where a name gives a salt, the structure may show the parent alone.

Columns and labels:
[1] = acrylic adhesives, WO98/53815; cited from earlier work
[2] = system: delayed emesis in cancer patients; test: continual IV infusion of granisetron in cancer patients, delayed emesis (Kalaycio et al.); format: in vivo, human; conditions: continual IV infusion at 40 μg/h
Text: The minimum therapeutic plasma level required for efficacious use of any drug is ideally assessed by titrated, prolonged IV infusion studies coupled to clinical response in patients.

[3] = cited from earlier work
[4] = single administration of a 1 mg tablet, human volunteers; cited from earlier work
[5] = system: delayed emesis in cancer patients; conditions: continual IV infusion at 40 μg/h; cited from earlier work
[6] = system: post-operative nausea and vomiting; conditions: doses as low as 0.1 mg; cited from earlier work
[7] = continual twice daily dosing of 1 mg in cancer patients

| SMILES | stability in adhesives containing nucleophilic (hydroxyl) moieties [1] | plasma level maintained [2] | average peak plasma levels [3, 7] | clearance [3, 7] | Tmax ([3]; oral granisetron, population not given) | Cmax [4] | effect on delayed emesis [5] | prevention of post-operative nausea and vomiting [6] |
| --- | --- | --- | --- | --- | --- | --- | --- | --- |
| CN1[C@@H]2CC[C@H]1C[C@@H](OC(=O)c1c[nH]c3ccccc13)C2 [tropisetron] | unstable |  |  |  |  |  |  |  |
| CN1C2CCCC1CC(NC(=O)c1nn(C)c3ccccc13)C2 (stereo not drawn) [granisetron, N-endo-9-methyl-9-azabicyclo[3.3.1]non-3-yl-1-methylindazole-3-carboxamide hydrochloride] |  | approximately 1.5 ng/ml | 6 ng/mL | 8.67 mL/min/kg | approximately 2 hours | 3.6 ng/mL | alleviate delayed emesis | effective |
